Patent US9226503B2, “Composition and method for attraction of emerald ash borer Agrilus planipennis fairmaire (coleoptera: buprestidae)” (Her Majesty the Queen in Right of Canada, as represented by …, priority 2011, dated 2016)

Columns and labels:
[1] = test system: A. planipennis antennae; experiment: GC-EAD analysis; parameters: species or system Agrilus planipennis; conditions: synthetic mixture of (3E)- and (3Z)-lactones
Experimental: A Varian CP-3380 gas chromatograph with FID detector was modified for use with a GC-EAD signal recording device (IDAC-232). EAG data were analyzed using Syntech GC-EAD software v.2.6 (SYNTECH, The Netherlands). The column used for analysis was a Supelco SPB-5 capillary (30 m×0.32 mm×0.25 μm film) in the splitless mode with helium as carrier gas. The injection port was at 220° C. and the oven temperature was programmed from 70° C., held for 1 min and then increased at 10° C./min to 240° C. and held for 30 min. A number of GC-EAD runs on male and female volatiles were carried out. Both the (3Z)-lactone and (3E)-lactone were diluted to 10 μg/ml in hexane; 1 μl of diluted pheromone was injected for each GC-EAD run.
Ten nanograms was injected for the GC-EAD analysis consisting of 90% (3Z)-lactone and 10% (3E)-lactone using a DB-1 (15 m×0.25 mm ID, 1 μm film) capillary column (J&W Scientific, Folsom, Calif.). The GC oven temperature program was 50° C. for 1 min, then increased at 20° C./min and held at 280° C. for 2 min. The GC-EAD responses of five male and five female EAB antennae were analyzed.

[2] = Effect of light on (3Z)-lactone (isomerization); assay type: physicochemical; conditions: for isomerization in direct sunlight: quartz cuvette or surface of female cadavers, 2-3 days
Experimental: To determine whether light would promote the isomerization from (3Z) to (3E)-lactone, 20 mg of (3Z)-lactone was placed neat on a glass slide 10 mm below a UV light (UVG-54 handheld UV-lamp, 254 nm, 6w; UVP Upland Calif., USA) for three d. Subsamples (taken as 1 mg in a pipette) were analyzed by GC/MS at regular intervals and the ratio of (3E):(3Z)-lactone was recorded. In addition, 6 mg of each of (3Z)- and (3E)-lactones (neat) were coated on the quartz surface of a cuvette and exposed outdoors to sunlight at 11° C. mean temperature for 9 d for an average of 5 h a day. Finally, (3Z)-lactone was coated (4 mg) on the dorsal surface of abdomen and […] of 3 female EAB cadavers that were exposed to sunlight for 6 h per day for 1, 2 or 3 d at 10° C. mean temperature; cadavers were stored at 4° C. between sunny days. The lactones were removed from cuvettes and cadavers with hexane washing and analysed by GC/MS to determine the E:Z ratio.

[3] = test system: A. planipennis; experiment: Field trapping experiment 3 (2010), green sticky prism traps, Ontario and Michigan; assay type: in vivo, Agrilus planipennis; conditions: lactone alone
Experimental: Field trapping. Three trapping experiments were carried out in green ash plantations (F. pennsylvanica Marsch) with low-to-moderate A. planipennis populations about 40 km southeast of Sarnia, Ontario (42° 58′ 0 N, 82° 24′ 0 W) in 2008, 2009 and 2010. Trees at these sites were generally healthy in appearance with low or no signs of decline, and only a small number of trees had obvious signs/symptoms of infestation by A. planipennis. In Ontario sites, trees were 20-25 years old, 4-6 m tall, 10-15 cm in diameter, and spaced about 2 m apart within a row and 2.5 m between rows. In 2010, the trapping experiment was replicated at four sites in Michigan, USA, in addition to the sites in Ontario. Sites in Michigan were 10-100 years old, 10-30 m tall, 15-70 cm in diameter, and located in a mixed woodlot. […] Traps were checked every 2 weeks and A. planipennis were collected, counted and sexed. […]
The effect of each attractant on mean catch of female and male A. planipennis was analyzed independently using ANOVA and a randomized complete block design. Sites were analyzed separately in 2009 due to differences in sex ratios. In 2010, sites in Ontario were analyzed separately from those in Michigan due to the considerable differences in stand conditions and height of traps with respect to the ash canopy. […]

effect of storing in a pyrex container (filters out UV-light) [2]	conjugated isomer formed on UV exposure ([2]; UV lamp 254 nm, GC/MS) [%]	(3E):(3Z) ratio, initial lactone sample ([2]; before UV exposure)	(3E):(3Z) ratio after exposure to UV light ([2]; neat, UV lamp 254 nm, three d)	stability to isomerization under normal laboratory fluorescent lighting ([2]; preliminary studies)	isomerization in direct sunlight [2]	Structure (SMILES)	GC-FID/EAD responses of male and female antennae [1]	trap captures compared to unbaited control, sites in Ontario ([3]; green traps in the canopy, Ontario, P<0.02)	trap catch compared to unbaited control ([3]; green traps, 2010, Ontario and Michigan)
preventing photoisomerisation	< 1	0.028	0.60	very stable	very slow isomerization	O=C1C/C=C\CCCCCCCCO1 [(3Z)-lactone, (3Z)-dodecen-12-olide]	significant responses	slight increase in trap captures	–
–	–	–	–	–	very slow isomerization	O=C1C/C=C/CCCCCCCCO1 [(3E)-lactone, (3E)-dodecen-12-olide]	significant responses	–	did not affect trap catch
